Laboratory results reported in patent US11191803B2, “Laminin receptor peptides for therapy” (priority 2017, dated 2021).
“And” between values parts separate entries of the source, which are not always exact repeats. Identical values can stand only once.

Experiments:
ALS/MND patients [1] = details: over 24 weeks; mildly symptomatic group; placebo lost 7.5 points; cited from earlier work
ALS/MND patients [2] = details: 24 week treatment; mixed patient population, median ALSFRS-R score 43; cited from earlier work
ALS/MND patients [3] = assay: Second Phase III trial of Edaravone in a selected mildly symptomatic group; details: 24 weeks; mildly symptomatic subgroup
ALS/MND patients [4] = details: cited from earlier work
[5] = tested on: isolated rat islet cultures; assay: Glucagon secretion from collagenase-isolated rat pancreatic islet cultures (Quantikine ELISA); assay type: cell-based, Wistar rats; details: peptide 1 μg/ml; for Glucagon level, Medium plus Peptide A: RPMI 1640, 11 mmol/L glucose, 10% FCS
Method: Digestion of pancreatic tissue with collagenase to isolate islets causes similar disruption to the signalling molecules via disorganization of ECM components including laminin, fibronectin and collagen (Lee & Blaufox, J Nucl Med, 1985, 25:72-76) that results in similarly abnormally high glucagon secretion.
Islets from 2 Wistar rats (˜250 g) were isolated according to the method of Li et al. (Nature Protocols, 2009, 4:1649-1652) and suspended in 30 ml RPMI 1640 containing 11 mmol/L glucose and 10% FCS. One ml islet suspension was added to each well of 24-well plates. Peptide A dimer (SEQ ID NO: 3) was dissolved in HBSS at 100 μg/ml and added to wells at a final concentration of 1 μg/ml. After appropriate incubation times, samples were removed for glucagon measurements using Quantikine ELISA Immunoassay (R&D Systems).

ALS/MND patients [6] = assay: Clinical data: ALSFRS-R score in ALS/MND patients treated on a named patient basis for 6 months; assay type: in vivo, human
Source text: Clinical data were obtained from 19 ALS/MND patients treated on a named patient basis, for a period of 6 months, with the Peptide A dimer (SEQ ID NO: 3).
Average time from diagnosis to treatment was 17.8 months and the decline rate from diagnosis to start of treatment was established for each patient, which averaged at −1.24+/−0.7 decline per month on the ALSFRS-R score. Mean ALSFRS-R score at start of treatment was 32.94+/−8.13, median score 36 (min-max 15-44).

pancreatic α-cell line = details: culture of a pancreatic α-cell line; cited from earlier work

CC1=NN(c2ccccc2)C(=O)C1 [Edaravone]
Loss on the ALSFRS-R score (ALS/MND patients [1]): 5 points
Efficacy in initial Phase III trial (ALS/MND patients [2]): failed to show any efficacy
Slowing down of progression vs placebo (ALS/MND patients [3]): 33.3%

Nc1nc2ccc(OC(F)(F)F)cc2s1 [Riluzole]
Functional advantage (ALS/MND patients [4]): no functional advantage demonstrated

CVPSVPIQQFPTEDWS CVPSVPIQQFPTEDWS [Peptide A dimer]
% Reduction of glucagon secretion vs medium alone ([5]; 4 hours): 31.6%
Glucagon level, Medium plus Peptide A ([5]; 4 hours): 425.6 ± 14.8 pg/mL
% Reduction of glucagon secretion vs medium alone ([5]; 24 hours): 44.8%
Glucagon level, Medium plus Peptide A ([5]; 24 hours): 144.8 ± 8.8 pg/mL
% Reduction of glucagon secretion vs medium alone ([5]; 72 hours): 55.2%
Glucagon level, Medium plus Peptide A ([5]; 72 hours): 98.3 pg/mL and 98.3 ± 4.7 pg/mL
Participants who stabilized and rose one point each on the ALSFRS-R scale, share of group (ALS/MND patients [6]; 2/19 patients): 10.5%
% Slower Progression (actual vs predicted decline) (ALS/MND patients [6]; 19 ALS/MND patients): 62% and 62.07%
ALSFRS-R Score, C Actual (ALS/MND patients [6]; 19 ALS/MND patients, actual score to time of analysis, baseline 32.94): 29.53 +/− 8.26
Actual Decline (A-C) in ALSFRS-R score (ALS/MND patients [6]; 19 ALS/MND patients, predicted decline A-B = 8.99): A-C = 3.41
% Slower Progression (actual vs predicted decline) (ALS/MND patients [6]; subgroup 7 of 19 patients with faster predicted decline): 76.6%
ALSFRS-R Score, C Actual (ALS/MND patients [6]; subgroup 7 of 19 patients with faster predicted decline, baseline 30.43): 27.00 +/− 9.90
Actual Decline (A-C) in ALSFRS-R score (ALS/MND patients [6]; subgroup 7 of 19 patients, predicted decline A-B = 14.7): A-C = 3.43

methyl-β-cyclodextrin
Glucagon secretion change (pancreatic α-cell line): doubling of the glucagon secretion
Reduction of cholesterol (pancreatic α-cell line): approximately 60%
